According to publication PMC9323955, “Synthesis and Evaluation of Small Molecule Drug Conjugates Harnessing Thioester-Linked Maytansinoids” (Pharmaceutics, 2022):

Experiments:
[1] = test system: HCC1806 triple-negative breast cancer cells; assay: MTS cell viability assay (72 h); format: cell-based, human; settings: HCC1806, conjugate vs DM1/DM4
Method: HCC1806 cells were grown in RPMI 1640 medium, and MTS assays were performed to check cell viability. Cells (2500–3000 cells/well) were grown in flat-bottomed 96-well plates for 24 h, and then serial dilutions of the compound were added, and cells were allowed to incubate for a further 72 h. At the end of the 72-h incubation period, the medium was removed, and 100 μL of a solution including a mixture of MTS and PMS was added. The cells were incubated for 1.5 h at 37 °C in a humidified incubator with 5% CO2 to allow viable cells to convert tetrazolium salts to formazan. Conversion to formazan was measured by absorbance (490 nm) using a BioTek PowerWave-X absorbance microplate meter. The data collected were normalized using a DMSO-treated control (100% viability) and a background control (0% viability) to verify growth inhibition.

[2] = Pharmacokinetic study, single intravenous dose; format: in vivo, male ICR mice
Method: Six-week-old male ICR mice from BioLASCO Taiwan were divided into three groups and administered intravenously at a 5 mg/kg dose. Blood samples were taken from each animal at time points 0.003, 0.083, 0.25, 0.5, 1, 2, 4, 6, 8, and 24 h and stored on ice (0–4 °C). The plasma was separated from the blood by centrifugation (in a Beckman Allegra 6R at 3000 rpm, 4 °C for 15 min) and stored under freezing conditions (−20 °C). Plasma and harvested tumor samples were stored at −80 °C until use. Fifty microliters of mouse plasma or tumor samples homogenized with ddH2O at a dilution ratio of 1:3 (w/v) with MiniBeadbeater-16 (BioSpec Products Inc., Bartlesville, OK, USA) were mixed with 100 μL of acetonitrile containing 250 ng/mL BPR0L187. The mixture was vortexed for 30 s and then centrifuged at 15,000× g for 20 min. The supernatant was transferred to a clean test tube, and 15 µL of supernatant was injected into the LC/MS/MS. Plasma samples were analyzed by liquid chromatography-tandem mass spectrometry (LC/MS/MS). The chromatography system was an Agilent 1200 series liquid chromatography system and an Agilent ZORBAX Eclipse XDB-C8 column (5 µm, 3.0 × 150 mm) connected with an MDS Sciex API4000 tandem mass spectrometer equipped with an ESI in forwarding scan mode at 600 °C. Data acquisition was performed by multiple reaction monitoring (MRM). A gradient system was used to separate the analytes from the IS. Mobile phase A was a 10 mM aqueous ammonium acetate solution containing 0.1% formic acid. Mobile phase B was acetonitrile. The gradient profile was as follows. 0.0–1.1 min, 50% B; 1.2–3.7 min, 55% B-90% B; 3.8–5.0 min, 90% B-50% B. The flow rate was 1.5 mL/min. The autosampler was set to inject 15 µL of the sample every 5 min.

[3] = test system: sorafenib-resistant hepatocellular carcinoma; assay: Oncogene-induced, sorafenib-resistant HCC mouse model; format: in vivo
Method: Cancer cells suspended in RPMI 1640 medium (11835-030, Thermo Fisher Scientific, Waltham, MA, USA) were mixed with Matrigel™ (356237, BD Biosciences, Franklin Lakes, NJ, USA) in a 1:1 ratio. Human triple-negative breast cancer HCC1806 (1 × 10^6 cells) cells were inoculated subcutaneously into the left flank of 6-week-old female nude mice (BioLASCO Taiwan, Taipei, Taiwan) using a 1 mL syringe with a 24G needle (AN-2425R, Terumo Medical Corp., Tokyo, Japan). Tumor dimensions were measured twice weekly using electronic calipers (FOW54-200-777, PRO-MAX), and the volume of tumor grown subcutaneously (mm^3) was calculated by the formula Volume = (length × width^2)/2. A combination of 10% DMA/20% Cremophor EL/70% 5% dextrose injection (D5W) was formulated to treat HCC1806 xenograft tumors. Mice with HCC1806 tumors were grouped and administered the indicated dosing regimen of 1 mg/kg for the conjugate and 0.3 mg/kg for the cytotoxic payloads DM1 and DM4 twice-weekly (day 1 and day 4) for 2 weeks when the mean tumor volume was approximately 200–250 mm^3 or 850–900 mm^3 (large tumors). The conjugate dose of 2 mg/kg was administered weekly for the large tumor study. The body weight and tumor volume of mice were measured twice weekly. In addition, a previously reported oncogene-induced, sorafenib-resistant HCC mouse model was used in the current study to examine the antitumor activities of synthesized compounds. Briefly, plasmids including transposase (pCMV(CAT)T7-SB100), human Akt1, and luciferase (pKT2/CLP-AKT-2A-OVA-HBc-HBs-LUC) and the N-Ras V12 mutant (pT/Caggs-NRASV12) were hydrodynamically injected (HDI) and the liver was monitored for the appearance of HCC. HCC mice with a total flux of more than 1 × 10^9 photons/s from IVIS imaging were used as treatment conjugates. The indicated conjugate was administered intravenously at 1 mg/kg 3 times per week over 2 weeks. IVIS imaging was repeatedly performed to follow tumor progression, and tumor tissue from treated HCC mice was collected for histological examination and RNA extraction after administration.
Paraffin-embedded liver/tumor tissue sections were de-paraffined, re-hydrated, and then subjected to heat-induced antigen retrieval, followed by incubation with primary Abs. The primary antibodies used to detect Ki-67 and CD8α were SP6 (Abcam, Cambridge, UK) and D4W2Z (Cell Signaling Technology, Danvers, MA, USA), respectively. ImmPRESS anti-rat Ig, ImmPRESS anti-rabbit Ig, polymer detection kit, DAB peroxidase substrate kit (Vector laboratories, Burlingame, CA, USA), and liquid permanent red substrate (Dako, Glostrup, Denmark) and Hematoxylin Gill II (Leica, Wetzlar, Germany) were used for detection and visualization. Images were taken by NHRI’s Pathology Core Laboratory using an automated digital slide scanner Pannoramic MIDI with a Plan-Apochromat 20×/0.8 objective (3D HISTECH, Budapest, Hungary).
Total RNA was extracted from conjugate-treated or vehicle-treated HCC mouse tumor tissue using the RNA-easy kit (QIAGEN, Hilden, Germany). The concentration (absorbance at 260 nm) and purity (A260/280 and A260/230 ratios) of the extracted RNA was measured spectrophotometrically; RNA integrity was further determined using the 2100 Bioanalyzer System (Agilent RNA was further determined for RNA integrity using a 2100 Bioanalyzer System (Agilent Technologies, Santa Clara, CA, USA). RNA was hybridized to the barcode probe provided in the nCounter Mouse Pan-Cancer Immunoassay Kit (NanoString Technologies, Seattle, WA, USA) and then used to measure mRNA expression of 770 genes associated with the immune response. Nanostring nSolver 4.0 and nCounter Advanced Analysis 2.0 software (NanoString Technologies) was used for data processing, immune cell analysis, and pathway scoring according to the developer’s instructions.

[4] = male ICR mice (n = 3), 5 mg/kg i.v.
[5] = Nanostring mRNA analysis vs vehicle
[6] = Nanostring pathway scoring vs vehicle

For `COc1cc2cc(c1Cl)N(C)C(=O)CC(OC(=O)C(C)N(C)C(=O)CCSC(=O)c1ccc(CN(CCOCCOCCNC(=O)c3ccc(CN(CCCCOc4cc(CN(Cc5ccccn5)Cc5ccccn5)cc(CN(Cc5ccccn5)Cc5ccccn5)c4)C(=O)C4(c5ccc(Cl)cc5)CCCCC4)cc3)C(=O)C3(c4ccc(Cl)cc4)CCCCC3)cc1)C1(C)OC1C(C)C1CC(O)(NC(=O)O1)C(OC)C=CC=C(C)C2.O=[N+]([O-])[O-].O=[N+]([O-])[O-].O=[N+]([O-])[O-].O=[N+]([O-])[O-].[Zn+2].[Zn+2]` (stereo not shown) [Zn8_DM1], the “fold attenuation in cytotoxicity relative to parent payload” value [1] was 2.5–6 fold, the “AUC (0–24 h), intact conjugate” value [2, 4] was “Intact Conjugate: 161,538 ng/mL·h” and the CL [2, 4] was 0.5 mL/min/kg. The Vss [2, 4] was 0.6 L/kg, the “AUC (0–24 h), released payload (DM1 or DM4)” value ([2]; male ICR mice (n = 3), 5 mg/kg i.v. of the conjugate) was “DM1: 500 ng/mL·h” and the “AUC ratio between intact conjugate and released payload” value ([2]; within 24 h in circulation, 5 mg/kg i.v.) was “large AUC ratio”. The “anti-HCC tumor growth (flux of luciferase activity)” value ([3]; 1 mg/kg i.v. 3 times a week for 2 weeks) was “potent anti-HCC tumor growth”, the “CD8+ T-cell infiltration in tumors” value ([3]; CD8α immunohistochemistry) was “significant increase” and the “CXCL9 gene expression in tumor tissue” value [3, 5] was “significant upregulation”. For the same compound, the “PD-L1 gene expression in tumor tissue” value [3, 5] was “elevated PD-L1 gene expression”, the “STAT1 gene expression in tumor tissue” value [3, 5] was “elevated” and the “NK cell function score in TME” value [3, 6] was “significant improvement”. The “T-cell function score in TME” value [3, 6] was “significant improvement”, the “interferon score in TME” value [3, 6] was “significant improvement” and the “Ki-67 staining of tumor samples” value ([3]; immunohistochemistry, treated tumor) was “marked reduction in Ki-67 staining”. The “liver tumor burden vs vehicle” value ([3]; livers harvested a week post last dose) was “less tumor burden”.
